Patent US10533015B1, “Opioid receptor antagonist prodrugs” (Nirsum Laboratories, Inc., priority 2019, dated 2020)
Read-outs that look alike come from different tables or passages of the source.

Legend:
[1] = Plasma stability assay, rat plasma; type: in vitro ADME; conditions: 10 μM, 37° C.
Procedure: Plasma stability determination of the test compounds in rat, dog, cynomolgus monkey and human plasma is performed using HPLC-MS. For rat, incubations are carried out in 96-well polypropylene plates in 5 aliquots of 70 μL each (one for each time point). […] Five time points are analyzed (0, 15, 120, 480 and 1440 min). For dog, monkey and human, test compounds (2 μM, final solvent concentration 1%) were also incubated at 37° C. and analyzed at five time points (0, 10, 30, 60 and 120 min). All incubations are performed in duplicates. The samples are analyzed by HPLC-MS. The percentage of parent compound remaining after incubation in plasma is determined.

[2] = heating temp. 40 °C, obs. temp. 40 °C
[3] = heating temp. 60 °C, obs. temp. 25 °C

With `C=C1CC[C@@]2(O)C3Cc4ccc(OC(=O)CCCCCCC/C=C\CCCCCCCC)c5c4[C@@]2(CCN3CC2CC2)[C@H]1O5` [Compound 36, (4aS,7aS,12bS)-3-(cyclopropylmethyl)-4a-hydroxy-7-methylene-2,3,4,4a,5,6,7,7a-octahydro-1H-4,12-methanobenzofuro[3,2-e]isoquinolin-9-yl oleate] the “% remaining at time point” value ([1]; 0 min) was 100%, the “% remaining at time point” value ([1]; 15 min) was 74.4% and the “% remaining at time point” value ([1]; 120 min) was 66.3%. For the same compound, the “% remaining at time point” value ([1]; 480 min) was 39.8%, the “% remaining at time point” value ([1]; 1440 min) was 19.1% and the “Approximate Solubility (mg/mL) in Excipient: Castor oil” value (Castor oil, heating temp. 40 °C, obs. temp. 40 °C) was >217 mg/mL. For the same compound, the “Approximate Solubility (mg/mL) in Excipient: Cottonseed oil” value (shortened to “Approximate Solubility … Cottonseed oil”) [2] was >418.7 mg/mL, the “Approximate Solubility … Cottonseed oil” value [3] was >407 mg/mL and the “Approximate Solubility (mg/mL) in Excipient: Ethanol” value (Ethanol, heating temp. 40 °C, obs. temp. 40 °C) was 20 to 30 mg/mL. For the same compound, the “Approximate Solubility (mg/mL) in Excipient: Sesame oil” value (from here on “Approximate Solubility … Sesame oil”) [2] was >411.6 mg/mL and the “Approximate Solubility … Sesame oil” value [3] was >408 mg/mL.
In the case of `C=C1CC[C@@]2(O)C3Cc4ccc(OCOC(=O)OCCCCCCCCCCCCCC)c5c4[C@@]2(CCN3CC2CC2)[C@H]1O5` [Compound 25, (((4aS,7aS,12bS)-3-(cyclopropylmethyl)-4a-hydroxy-7-methylene-2,3,4,4a,5,6,7,7a-octahydro-1H-4,12-methanobenzofuro[3,2-e]isoquinolin-9-yl)oxy)methyl tetradecyl carbonate], the “% remaining at time point” value ([1]; 0 min) is reported as 100%, the “% remaining at time point” value ([1]; 15 min) is reported as 82.6% and the “% remaining at time point” value ([1]; 120 min) is reported as 69.3%. For the same compound, the “% remaining at time point” value ([1]; 480 min) was 62.2%, the “% remaining at time point” value ([1]; 1440 min) was 51.7% and the “Approximate Solubility … Cottonseed oil” value [3] was >414 mg/mL. The “Equilibrium solubility (mg/mL) Water” value [2] was <0.001 mg/mL.
With `CCCCCCCCCCCCCCC(=O)Oc1ccc2c3c1O[C@H]1C(=O)CC[C@@]4(O)C(C2)N(CC2CC2)CC[C@]314` [Compound 58, (4aS,7aR,12bS)-3-(cyclopropylmethyl)-4a-hydroxy-7-oxo-2,3,4,4a,5,6,7,7a-octahydro-1H-4,12-methanobenzofuro[3,2-e]-isoquinolin-9-yl pentadecanoate] the “% remaining at time point” value ([1]; 0 min) was 100%, the “% remaining at time point” value ([1]; 15 min) was 37% and the “% remaining at time point” value ([1]; 120 min) was 20%. For the same compound, the “% remaining at time point” value ([1]; 480 min) was 2.9%, the “% remaining at time point” value ([1]; 1440 min) was 1.8% and the “Approximate Solubility … Cottonseed oil” value [3] was 101.8 to 203.6 mg/mL. The “Approximate Solubility … Sesame oil” value [3] was 99.4 to 198.8 mg/mL.
With `CCCCCCCCCCCCCC(=O)Oc1ccc2c3c1O[C@H]1C(=O)CC[C@@]4(O)C(C2)N(CC2CC2)CC[C@]314` [Compound 57, (4aS,7aR,12bS)-3-(cyclopropylmethyl)-4a-hydroxy-7-oxo-2,3,4,4a,5,6,7,7a-octahydro-1H-4,12-methanobenzofuro[3,2-e]isoquinolin-9-yl tetradecanoate] the “% remaining at time point” value ([1]; 0 min) was 100%, the “% remaining at time point” value ([1]; 15 min) was 10.5% and the “% remaining at time point” value ([1]; 120 min) was 3.2%. For the same compound, the “% remaining at time point” value ([1]; 480 min) was 1.2%, the “% remaining at time point” value ([1]; 1440 min) was 0% and the “Approximate Solubility … Cottonseed oil” value [3] was >423.7 mg/mL. For the same compound, the “Approximate Solubility … Sesame oil” value [3] was >417.3 mg/mL and the “Equilibrium solubility (mg/mL) Water” value [2] was <0.001 mg/mL.
With `CCCCCCCCCCCCCCCCCCCC(=O)Oc1ccc2c3c1O[C@H]1C(=O)CC[C@@]4(O)C(C2)N(CC2CC2)CC[C@]314` [Compound 50, (4aS,7aR,12bS)-3-(cyclopropylmethyl)-4a-hydroxy-7-oxo-2,3,4,4a,5,6,7,7a-octahydro-1H-4,12-methanobenzofuro[3,2-e]isoquinolin-9-yl iconsanoate] the “% remaining at time point” value ([1]; 0 min) was 100%, the “% remaining at time point” value ([1]; 15 min) was 114.5% and the “% remaining at time point” value ([1]; 120 min) was 102.7%. The “% remaining at time point” value ([1]; 480 min) was 83.3%, the “% remaining at time point” value ([1]; 1440 min) was 73.9% and the “Approximate Solubility … Cottonseed oil” value [3] was <51 mg/mL. For the same compound, the “Approximate Solubility … Sesame oil” value [3] was <52 mg/mL and the “Equilibrium solubility (mg/mL) Water” value [2] was <0.001 mg/mL.
